The text below walks through data of BindingDB's records for PubMed 30125723 (n/a, 2018).

This test concerns the target alpha-glucosidase (Saccharomyces cerevisiae). Put plainly: Inhibition of Saccharomyces cerevisiae alpha-glucosidase activity using pNPG as substrate.

As for `O=C(CO)CCC(=O)c1nc(C(=O)O)cc2c1[nH]c1ccccc12`, half-maximal inhibition (IC50) required 63 nM. That is a double-digit nanomolar value.
